Experimental data published in the supplement of paper PMC10307832.

Legend:
[1] = compound: C1CCC(CC1)N(CCNCCC2=C3C(=C(C=C2)O)NC(=O)CO3)C(=O)CCNCCC4=CC(=C(C=C4)Cl)Cl [AZ505] + COc1cc2c(Oc3ccc(NC(=O)C4(C(=O)Nc5ccc(F)cc5)CC4)cc3F)ccnc2cc1OCCCN1CCOCC1 [Foretinib] (partner 0.25 µM); assay: relative viability (nuclei count vs DMSO), 5 days (fraction); higher = more cells survive
Procedure, shortened: (§1)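 Dosing by pin tool came one day after lung cancer cell lines were seeded in 1536-well plates, using either one drug or a fixed anchor-drug dose plus five library-drug doses (not always all listed) in √10 steps. After 5 days, nuclei were counted on 4× images. Relative viability is treated-well nuclei count divided by vehicle-well nuclei count, and values are medians of duplicate plates.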

[2] = compound: Cn1c(=O)n(-c2ccc(C(C)(C)C#N)cc2)c2c3cc(-c4cnc5ccccc5c4)ccc3ncc21 [Dactolisib] + Cc1cc(Nc2cc(N3CCN(C)CC3)nc(Sc3ccc(NC(=O)C4CC4)cc3)n2)n[nH]1 [Tozasertib] (partner 0.1 µM); assay: as above
Procedure, shortened: as §1

Cell Line	relative viability ([1]; first compound 0.08 µM)	relative viability ([1]; first compound 0.253 µM)	relative viability ([1]; first compound 0.8 µM)	relative viability ([1]; first compound 2.53 µM)	relative viability ([1]; first compound 8 µM)	relative viability ([2]; first compound 0.002 µM)	relative viability ([2]; first compound 0.006325 µM)	relative viability ([2]; first compound 0.02 µM)	relative viability ([2]; first compound 0.06325 µM)	relative viability ([2]; first compound 0.2 µM)
NCI-H1975	0.889	0.928	0.902	0.946	0.96	0.753	0.724	0.578	0.267	0.138
CAL-12T	1.03	1.11	1.18	1.22	1.36	0.288	0.296	0.241	0.163	0.121
NCI-H1623	0.76	0.781	0.834	0.79	0.99	0.396	0.414	0.428	0.37	0.298
HCC-44	–	–	–	–	–	0.826	0.899	0.855	0.341	0.297
EKVX	0.586	0.801	0.827	0.433	0.75	0.426	0.366	0.423	0.242	0.179
NCI-H1651	0.771	0.843	0.804	0.603	0.84	0.693	0.677	0.564	0.475	0.286
NCI-H1944	0.875	0.903	0.938	0.806	0.761	0.308	0.237	0.237	0.156	0.153
NCI-H1703	–	0.411	0.335	0.366	0.365	–	–	–	–	–
Calu-6	0.814	0.901	0.819	0.799	0.892	–	–	–	–	–
EBC-1	0.0937	0.0894	0.0949	0.0895	0.121	–	–	–	–	–
A-427	1.05	1.04	0.997	1.1	1.13	0.201	0.192	0.253	0.208	0.187
NCI-H2347	–	0.743	0.719	–	1.04	0.676	0.527	0.535	0.394	0.264
NCI-H1355	0.819	1.01	0.992	1	1.01	0.625	0.537	0.447	0.456	0.177
NCI-H358	0.573	0.732	0.629	0.549	0.59	0.114	0.0941	0.0945	0.0839	0.0896
PC-3 [JPC-3]	0.945	0.936	0.923	0.991	1.04	0.967	0.896	0.803	0.831	0.608
NCI-H2228	0.644	0.799	0.809	0.823	0.665	0.256	0.294	0.191	0.112	0.0991
HOP-62	1.06	1.13	1.03	1.08	1.13	0.423	0.383	0.473	0.306	0.309
HARA	0.85	0.963	0.766	0.709	0.633	0.103	0.116	0.103	0.112	0.0818
NCI-H838	0.983	1.01	0.994	0.965	1.01	0.249	0.295	0.254	0.208	0.199
NCI-H1755	0.817	0.913	0.893	0.93	0.9	0.613	0.555	0.577	0.542	0.419
HCC-78	0.575	0.631	0.578	0.568	0.644	0.457	0.418	0.414	0.361	0.284
IA-LM	0.921	1.21	1.07	1.12	1.42	–	–	–	–	–
NCI-H322M	0.889	1	0.952	0.946	1.1	0.386	0.46	0.414	0.412	0.37
NCI-H3122	0.889	0.993	0.837	0.964	1.05	0.427	0.361	0.425	0.352	0.16

Cell Line	relative viability ([1]; first compound 0.08 µM)	relative viability ([1]; first compound 0.253 µM)	relative viability ([1]; first compound 0.8 µM)	relative viability ([1]; first compound 2.53 µM)	relative viability ([1]; first compound 8 µM)	relative viability ([2]; first compound 0.002 µM)	relative viability ([2]; first compound 0.006325 µM)	relative viability ([2]; first compound 0.02 µM)	relative viability ([2]; first compound 0.06325 µM)	relative viability ([2]; first compound 0.2 µM)
SK-LU-1	0.542	0.58	0.612	0.515	0.51	0.324	0.307	0.302	0.245	0.176
COR-L23	0.878	0.928	0.909	0.863	0.975	0.273	0.243	0.257	0.149	0.147
NCI-H2087	1.12	1.02	0.997	1.14	1.21	0.328	0.248	0.243	0.176	0.192
LC-2-ad	0.84	0.941	0.831	0.814	0.993	0.454	0.412	0.43	0.363	0.333
NCI-H1915	1.06	1.11	1	0.977	1.1	0.419	0.506	0.459	0.404	0.296
NCI-H1793	0.627	0.735	0.758	–	0.572	0.329	0.242	0.199	0.126	0.106
NCI-H2023	0.743	0.916	0.869	0.854	0.776	0.351	0.312	0.313	0.109	0.0881
COR-L 105	0.76	1.29	0.981	0.862	0.903	0.413	0.401	0.35	0.361	0.289
RERF-LC-KJ	0.906	0.829	0.8	0.46	0.863	0.535	0.551	0.599	0.279	0.397
LXF-289	0.887	0.972	0.923	0.96	0.956	0.236	0.189	0.226	0.182	0.136
PC-14	0.922	0.927	1.03	1.01	0.937	0.576	0.679	0.629	0.215	0.125
NCI-H650	1.01	1.14	1.06	1.08	1.01	0.713	0.651	0.711	0.608	0.408
NCI-H1666	0.946	1.01	0.917	0.9	0.95	0.742	0.614	0.667	0.526	0.614
NCI-H2085	0.698	0.887	0.915	0.821	1.08	0.852	0.776	0.649	0.502	0.347
NCI-H1734	0.785	0.811	0.754	0.751	0.829	0.212	0.259	0.279	0.23	0.198
NCI-H2126	0.892	1.16	1.19	1.1	1.13	0.813	0.829	0.814	0.536	0.452
EMC-BAC-2	0.95	0.99	0.993	0.985	0.961	0.266	0.271	0.334	0.287	0.273
NCI-H1993	0.764	0.702	0.731	0.846	0.963	0.584	0.581	0.504	0.495	0.502
NCI-H520	0.625	0.756	0.76	0.772	0.745	0.425	0.468	0.365	0.196	0.218
NCI-H647	1.22	1.37	0.963	1.19	1.12	0.265	0.235	0.19	0.099	0.112
SW 1573	0.873	0.993	0.918	0.817	0.959	0.153	0.2	0.232	0.154	0.0965
ChaGo-K-1	0.936	1.11	0.928	0.951	0.91	0.248	0.235	0.221	0.223	0.211
NCI-H2342	1.07	1.02	1.02	1.14	1.14	0.475	0.496	0.435	0.502	0.362
NCI-H1299	1.01	1.03	0.987	1.1	1.1	–	–	–	–	–

Cell Line	relative viability ([1]; first compound 0.08 µM)	relative viability ([1]; first compound 0.253 µM)	relative viability ([1]; first compound 0.8 µM)	relative viability ([1]; first compound 2.53 µM)	relative viability ([1]; first compound 8 µM)	relative viability ([2]; first compound 0.002 µM)	relative viability ([2]; first compound 0.006325 µM)	relative viability ([2]; first compound 0.02 µM)	relative viability ([2]; first compound 0.06325 µM)	relative viability ([2]; first compound 0.2 µM)
NCI-H1650	0.965	1.05	1.34	0.865	1.24	0.397	0.476	0.425	0.367	0.302
NCI-H2009	1.18	1.21	1.19	1.17	1.17	0.742	0.717	0.764	0.488	0.238
LOU-NH91	0.872	0.931	0.909	0.869	0.968	0.645	0.655	0.683	0.616	0.449
NCI-H2405	0.755	0.776	0.746	0.767	0.746	0.79	0.826	0.85	0.527	0.44
SW 900	0.85	0.972	0.968	0.927	0.616	0.633	0.669	0.511	0.426	0.36
LCLC-97TM1	0.874	0.87	0.888	0.86	1.02	0.189	0.15	0.151	0.171	0.111
NCI-H596	0.746	0.897	0.805	0.897	0.731	0.942	0.751	0.632	0.35	0.32
NCI-H727	0.998	0.861	0.856	–	0.993	0.585	0.587	0.561	0.451	0.407
H3255	0.81	1.05	0.924	0.872	1.19	0.525	0.521	0.682	0.51	0.432
SK-MES-1	0.765	0.774	0.824	0.782	0.738	0.989	0.84	0.876	0.32	0.264
NCI-H1437	1.16	1.26	1.21	1.29	1.18	0.467	0.425	0.415	0.518	0.382
NCI-H1648	–	–	–	–	–	0.407	0.433	0.446	0.24	0.218
LU99A	–	0.987	0.815	0.78	0.751	0.265	0.257	0.283	0.224	0.185
NCI-H522	–	–	–	–	–	0.625	0.575	0.542	0.521	0.385
HCC-827	0.891	1.08	1.02	1.08	1.09	0.419	0.452	0.401	0.416	0.329
LK-2	1.28	1.34	1.18	1.08	1.68	0.209	0.197	0.181	0.153	0.171
HCC-366	0.926	0.878	0.889	0.852	0.924	0.11	0.101	0.0652	0.0776	0.0308
BEN	0.612	0.644	0.693	0.675	0.833	0.525	0.553	0.53	0.49	0.42
NCI-H23	0.944	–	0.865	0.938	1.07	0.346	0.399	0.318	0.208	0.178
NCI-H1395	0.978	0.943	0.899	0.999	1.07	0.657	0.709	0.676	0.593	0.53
A549	0.895	1.06	0.812	1.03	1.06	–	–	–	–	–
NCI-H1563	0.928	0.965	0.902	0.866	0.93	–	–	–	–	–
